According to patent US8975398B2, “NAMPT inhibitors” (AbbVie Inc., priority 2012, dated 2015):
pIC50: −log10 of the molar value.

Assays:
[1] = biological target: NAMPT (human, recombinant, C-terminally His-tagged) (Homo sapiens, UniProt P43490); assay: Time-Resolved Fluorescence Resonance Energy Transfer (TR-FRET) Binding Assay of NAMPT; conditions: 6.8 nM NAMPT, 200 nM probe, equilibrated 3 hours, absence of substrates
Protocol: Determination of the utility of compounds having Formula (I) as binders to and inhibitors of NAMPT was performed using Time-Resolved Fluorescence Resonance Energy Transfer (TR-FRET) binding assays.
Time-Resolved Fluorescence Resonance Energy Transfer (TR-FRET) Binding Assay of NAMPT
Test compounds were serially diluted (typically 11 half log dilutions) in neat DMSO to 50× final concentrations prior to dilution with assay buffer (50 mM HEPES (NaOH), pH 7.5, 100 mM NaCl, 10 mM MgCl2, 1 mM DTT, 1% Glycerol) to 3× and 6% DMSO. Six μL were transferred to 384-well low-volume plates (Owens Corning #3673). To this, 12 μL of a 1.5× solution containing enzyme, probe and antibody were added. Final concentrations in the 18 μL, reactions were 1× assay buffer, 2% DMSO, 6.8 nM NAMPT (human, recombinant, C-terminally His-tagged), 200 nM probe (a potent nicotinamide-competitive inhibitor conjugated to Oregon Green 488) and 1 nM Tb-anti-His antibody (Invitrogen #PV5895). Reactions were equilibrated at room temperature for 3 hours prior to reading on an Envision multi-label plate reader (Perkin Elmer; Ex=337 nm, Em=520 and 495 nm). Time-resolved FRET ratios (Em520/Em495) were normalized to controls, plotted as a function of compound concentration and fit with the four-parameter logistic equation to determine IC50s.

NAMPT = NAMPT (Homo sapiens, UniProt P43490); assay: Time-Resolved Fluorescence Resonance Energy Transfer (TR-FRET) Binding Assay of NAMPT with PRPP; conditions: 2 nM NAMPT, 2 nM probe, 200 uM PRPP and 2.5 mM ATP, equilibrated 16 hours
NAMPT, sequence (P43490 whole entry): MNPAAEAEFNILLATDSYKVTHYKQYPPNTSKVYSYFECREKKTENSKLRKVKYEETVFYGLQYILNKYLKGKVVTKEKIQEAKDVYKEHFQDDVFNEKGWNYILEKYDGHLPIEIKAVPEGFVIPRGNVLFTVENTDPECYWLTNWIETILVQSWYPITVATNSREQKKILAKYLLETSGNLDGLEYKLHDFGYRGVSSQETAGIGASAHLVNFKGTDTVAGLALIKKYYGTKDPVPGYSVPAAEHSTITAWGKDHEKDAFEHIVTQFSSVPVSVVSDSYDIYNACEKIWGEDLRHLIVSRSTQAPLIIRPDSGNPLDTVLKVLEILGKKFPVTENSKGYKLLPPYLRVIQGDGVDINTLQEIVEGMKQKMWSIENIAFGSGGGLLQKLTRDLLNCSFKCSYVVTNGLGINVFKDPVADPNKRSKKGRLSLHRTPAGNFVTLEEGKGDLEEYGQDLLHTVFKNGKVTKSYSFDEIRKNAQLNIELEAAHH
Protocol: Time-Resolved Fluorescence Resonance Energy Transfer (TR-FRET) Binding Assay of NAMPT with PRPP
Compound handling and data processing were identical to the assay in the absence of substrates (above). Final concentrations were 1× assay buffer, 2% DMSO, 2 nM NAMPT, 2 nM probe, 1 nM Tb-anti-His antibody (Invitrogen #PV5895), 200 uM PRPP and 2.5 mM ATP. Reactions were equilibrated for 16 hours prior to measurement to allow for potential enzymatic modification of test compounds.

NAMPT (human, recombinant, C-terminally His-tagged), sequence (P43490 whole entry): as above

| Structure (SMILES) | pIC50 [1] | pIC50 (NAMPT) |
| --- | --- | --- |
| CC(C)(O)C(=O)N1CCC(Oc2ccc(NC(=O)[C@H]3CCN(c4cccnc4)C3)cc2)CC1 [Example 17, (3S)-N-(4-{[1-(2-hydroxy-2-methylpropanoyl)piperidin-4-yl]oxy}phenyl)-1-(pyridin-3-yl)pyrrolidine-3-carboxamide] | 5.45 | 8.63 |
| CCCC(C)CN1CCC(Oc2ccc(NC(=O)C3CN(c4cccnc4)C3)cc2)CC1 (centres unmarked) [Example 75, N-(4-{[1-(2-methylpentyl)piperidin-4-yl]oxy}phenyl)-1-(pyridin-3-yl)azetidine-3-carboxamide] | 5.87 | 9.14 |
| O=C(Nc1ccc(C2CCN(C(=O)CC3CCCCC3)CC2)cc1)C1CN(c2cccnc2)C1 [Example 119, N-{4-[1-(cyclohexylacetyl)piperidin-4-yl]phenyl}-1-(pyridin-3-yl)azetidine-3-carboxamide] | 8.21 | 9.77 |
| CC(C)C(=O)N1CCC(Oc2ccc(NC(=O)C3CN(c4cccnc4)C3)cc2)CC1 [Example 46, N-(4-{[1-(2-methylpropanoyl)piperidin-4-yl]oxy}phenyl)-1-(pyridin-3-yl)azetidine-3-carboxamide] | 7.03 | 8.99 |
| CC(C)(O)C(=O)N1CCC(Oc2ccc(NC(=O)C3CN(c4cccnc4)C3)cc2)CC1 [Example 31, N-(4-{[1-(2-hydroxy-2-methylpropanoyl)piperidin-4-yl]oxy}phenyl)-1-(pyridin-3-yl)azetidine-3-carboxamide] | 6.87 | 9.16 |
| CC[C@H](C)C(=O)N1CCC(Oc2ccc(C(=O)NC3CN(c4cccnc4)C3)cc2)CC1 [Example 23, 4-({1-[(2S)-2-methylbutanoyl]piperidin-4-yl}oxy)-N-[1-(pyridin-3-yl)azetidin-3-yl]benzamide] | 5.71 | 9.21 |
| CC(C)CC(=O)N1CCC(c2ccc(NC(=O)C3CN(c4cccnc4)C3)cc2)CC1 [Example 137, N-{4-[1-(3-methylbutanoyl)piperidin-4-yl]phenyl}-1-(pyridin-3-yl)azetidine-3-carboxamide] | 7.75 | 9.34 |
| COc1ncccc1N1CC(C(=O)Nc2ccc(C3CCN(C(=O)C(C)(C)O)CC3)cc2)C1 [Example 73, N-{4-[1-(2-hydroxy-2-methylpropanoyl)piperidin-4-yl]phenyl}-1-(2-methoxypyridin-3-yl)azetidine-3-carboxamide] | 6.65 | 7.15 |
| O=C(Nc1ccc(OC2CCN(C(=O)CC3CC3)CC2)cc1)[C@H]1CCN(c2cccnc2)C1 [Example 16, (3S)-N-(4-{[1-(cyclopropylacetyl)piperidin-4-yl]oxy}phenyl)-1-(pyridin-3-yl)pyrrolidine-3-carboxamide] | 5.61 | 8.38 |
| CC(C)(O)C(=O)N1CCC(c2ccc(NC(=O)C3CN(c4cccnc4C#N)C3)cc2)CC1 [Example 2, 1-(2-cyanopyridin-3-yl)-N-{4-[1-(2-hydroxy-2-methylpropanoyl)piperidin-4-yl]phenyl}azetidine-3-carboxamide] | 7.65 | 7.70 |
| CCCC(=O)N1CCC(Oc2ccc(NC(=O)C3CN(c4cccnc4)C3)cc2)CC1 [Example 43, N-{4-[(1-butanoylpiperidin-4-yl)oxy]phenyl}-1-(pyridin-3-yl)azetidine-3-carboxamide] | 7.06 | 9.10 |
| O=C(Nc1ccc(OC2CCN(C(=O)c3ccco3)CC2)cc1)C1CN(c2cccnc2)C1 [Example 63, N-(4-{[1-(furan-2-ylcarbonyl)piperidin-4-yl]oxy}phenyl)-1-(pyridin-3-yl)azetidine-3-carboxamide] | 7.28 | 9.29 |

Other lines, results leading:

| pIC50 [1] | pIC50 (NAMPT) | Structure (SMILES) |
| --- | --- | --- |
| 6.90 | 7.18 | O=C(Nc1ccc(OC2CCN(C(=O)c3cccc(F)c3)CC2)cc1)C1CN(c2ccnnc2)C1 [Example 286, N-(4-{[1-(3-fluorobenzoyl)piperidin-4-yl]oxy}phenyl)-1-(pyridazin-4-yl)azetidine-3-carboxamide] |
| 6.88 | 9.09 | CC(C)(C)C(=O)N1CCC(Oc2ccc(NC(=O)C3CN(c4cccnn4)C3)cc2)CC1 [Example 241, N-(4-{[1-(2,2-dimethylpropanoyl)piperidin-4-yl]oxy}phenyl)-1-(pyridazin-3-yl)azetidine-3-carboxamide] |
| 6.87 | 7.46 | O=C(Nc1ccc(OC2CCN(C(=O)Cc3ccc(F)cc3)CC2)cc1)C1CN(c2ccnnc2)C1 [Example 276, N-[4-({1-[(4-fluorophenyl)acetyl]piperidin-4-yl}oxy)phenyl]-1-(pyridazin-4-yl)azetidine-3-carboxamide] |
| 6.75 | 9.17 | COCC(=O)N1CCC(Oc2ccc(NC(=O)C3CN(c4cccnn4)C3)cc2)CC1 [Example 246, N-(4-{[1-(methoxyacetyl)piperidin-4-yl]oxy}phenyl)-1-(pyridazin-3-yl)azetidine-3-carboxamide] |
| 6.20 | 7.10 | Cc1ncccc1N1CC(C(=O)Nc2ccc(C3CCN(C(=O)CCN4CCOCC4)CC3)cc2)C1 [Example 184, 1-(2-methylpyridin-3-yl)-N-(4-{1-[3-(morpholin-4-yl)propanoyl]piperidin-4-yl}phenyl)azetidine-3-carboxamide] |
| 6.81 | 7.06 | O=C(Nc1ccc(OC2CCN(C(=O)c3cc(F)cc(F)c3)CC2)cc1)C1CN(c2ccnnc2)C1 [Example 299, N-(4-{[1-(3,5-difluorobenzoyl)piperidin-4-yl]oxy}phenyl)-1-(pyridazin-4-yl)azetidine-3-carboxamide] |
| 7.58 | 7.76 | CC(C)C(=O)N1CCC(c2ccc(NC(=O)C3CN(c4ccnnc4)C3)cc2)CC1 [Example 528, N-{4-[1-(2-methylpropanoyl)piperidin-4-yl]phenyl}-1-(pyridazin-4-yl)azetidine-3-carboxamide] |
| 7.00 | 7.34 | O=C(Nc1ccc(OC2CCN(C(=O)c3ccc(OC(F)(F)F)cc3)CC2)cc1)C1CN(c2ccnnc2)C1 [Example 290, 1-(pyridazin-4-yl)-N-[4-({1-[4-(trifluoromethoxy)benzoyl]piperidin-4-yl}oxy)phenyl]azetidine-3-carboxamide] |
| 7.82 | 9.20 | O=C(Nc1ccc(C2CCN(C(=O)c3cccc(F)c3)CC2)cc1)C1CN(c2cccnn2)C1 [Example 348, N-{4-[1-(3-fluorobenzoyl)piperidin-4-yl]phenyl}-1-(pyridazin-3-yl)azetidine-3-carboxamide] |
| 7.45 | 9.17 | O=C(Nc1ccc(C2CCN(C(=O)Cc3ccccc3F)CC2)cc1)C1CN(c2cccnn2)C1 [Example 366, N-(4-{1-[(2-fluorophenyl)acetyl]piperidin-4-yl}phenyl)-1-(pyridazin-3-yl)azetidine-3-carboxamide] |
| 7.46 | 8.83 | CC(C)C(=O)N1CCC(c2ccc(NC(=O)C3CN(c4cccnn4)C3)cc2)CC1 [Example 147, N-{4-[1-(2-methylpropanoyl)piperidin-4-yl]phenyl}-1-(pyridazin-3-yl)azetidine-3-carboxamide] |
| 6.28 | 7.79 | Cc1ncccc1N1CC(C(=O)Nc2ccc(C3CCN(C(=O)c4cc(Cl)cc(Cl)c4)CC3)cc2)C1 [Example 154, N-{4-[1-(3,5-dichlorobenzoyl)piperidin-4-yl]phenyl}-1-(2-methylpyridin-3-yl)azetidine-3-carboxamide] |
| 7.43 | 9.12 | O=C(Nc1ccc(C2CCN(C(=O)c3cccc(Cl)c3)CC2)cc1)C1CN(c2cccnn2)C1 [Example 351, N-{4-[1-(3-chlorobenzoyl)piperidin-4-yl]phenyl}-1-(pyridazin-3-yl)azetidine-3-carboxamide] |
| 7.56 | 9.28 | C#CCCC(=O)N1CCC(c2ccc(NC(=O)C3CN(c4cccnn4)C3)cc2)CC1 [Example 338, N-{4-[1-(pent-4-ynoyl)piperidin-4-yl]phenyl}-1-(pyridazin-3-yl)azetidine-3-carboxamide] |
| 7.66 | 9.16 | O=C(Nc1ccc(C2CCN(C(=O)CC(F)(F)F)CC2)cc1)C1CN(c2cccnn2)C1 [Example 332, 1-(pyridazin-3-yl)-N-{4-[1-(3,3,3-trifluoropropanoyl)piperidin-4-yl]phenyl}azetidine-3-carboxamide] |
| 6.82 | 7.19 | O=C(Nc1ccc(OC2CCN(C(=O)c3ccc(F)c(F)c3)CC2)cc1)C1CN(c2ccnnc2)C1 [Example 274, N-(4-{[1-(3,4-difluorobenzoyl)piperidin-4-yl]oxy}phenyl)-1-(pyridazin-4-yl)azetidine-3-carboxamide] |
